# System: Kit+CD55+Lin-CD71lo BM cells
# Assay: ETD activation in cultured pre-ETD BM cells with S phase arrest
# Type: cell-based, mouse
# Experimental: To test whether the synchronization of ETD activation with S phase reflects mechanistic dependence, BM cells were isolated prior to the onset of ETD (Kit+CD55+Lin−CD71lo, FIG. 5, Panels f-h). The cells were cultured in the presence of Epo, which allowed them to activate the ETD, reflected first by the upregulation of CD71, followed by the upregulation of the erythroid cell surface marker Ter119, and induction of the beta-globin gene (Hbb-b1). […] The ensuing ETD activation proceeded with a 10-hour delay in the induction of CD71 and Hbb-b1 (FIG. 5, Panels g and h).
# [1] = added for the first 10 hours of culture with Epo
smiles,measurement,setting,value
C[C@@]1(CO)[C@H](O)CC[C@@]2(C)[C@H]1CC[C@H]1C[C@@H]3C[C@@]12CC[C@]3(O)CO [aphidicolin],effect on S phase,[1],arrested S phase
same,effect on upregulation of CD71,[1],paused upregulation of CD71
same,delay in the induction of CD71 and Hbb-b1,"after removal, added for the first 10 hours",10 h

# — patent US11202818B2, “Methods and compositions for modulating erythropoiesis” (President and Fellows of Harvard College, priority 2016, dated 2021)
